Target: RIPK3 (Homo sapiens (Human), UniProt Q9Y572)
Assay: RIPK3 HTRF Kinase Assay
Assay type: binding
Details: RIPK3 1 nM; HTRF probe 23 nM; 60 min at room temperature; read-out: IC50 for Inhibition of RIPK3

Chain of RIPK3 (Q9Y572 whole entry, species assumed): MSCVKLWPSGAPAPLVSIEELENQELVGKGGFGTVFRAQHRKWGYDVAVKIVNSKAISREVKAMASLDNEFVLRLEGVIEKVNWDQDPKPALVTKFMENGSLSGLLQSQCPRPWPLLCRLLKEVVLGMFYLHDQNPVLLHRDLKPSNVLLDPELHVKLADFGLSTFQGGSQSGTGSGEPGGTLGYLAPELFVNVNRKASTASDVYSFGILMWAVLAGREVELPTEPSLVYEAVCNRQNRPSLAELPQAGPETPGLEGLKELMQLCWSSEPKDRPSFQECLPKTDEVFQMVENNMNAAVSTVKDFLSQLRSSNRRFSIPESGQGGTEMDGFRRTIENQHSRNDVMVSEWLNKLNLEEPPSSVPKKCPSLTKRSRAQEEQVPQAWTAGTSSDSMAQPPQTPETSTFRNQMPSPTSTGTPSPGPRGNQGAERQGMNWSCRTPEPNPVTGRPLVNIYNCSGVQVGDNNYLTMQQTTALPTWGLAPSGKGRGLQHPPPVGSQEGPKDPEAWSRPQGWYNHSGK

Row | Compound | IC50 [nM]
1 | N#Cc1cc(F)ccc1Cn1c2c(c(-c3ccc(C(F)(F)F)cc3)c1-c1ccncc1)C(=O)NCC2 [Example 9, 5-Fluoro-2-((4-oxo-2-(pyridin-4-yl)-3-(4-(trifluoromethyl)phenyl)-4,5,6,7-tetrahydro-1H-pyrrolo[3,2-c]pyridin-1-yl)methyl)benzonitrile] | 31 to 100
2 | O=C1NCCc2c1c(-c1ccc(F)cc1)c(-c1ccncc1)n2Cc1ccc(F)cc1 [Example 44] | < 30
3 | CC(=O)Nc1cc(-c2c(-c3ccc(F)cc3)c3c(n2Cc2ccc(C(F)(F)F)cc2F)CCNC3=O)ccn1 [Example 101] | < 30
4 | CC(C)(C)Cn1c2c(c(-c3ccc(F)cc3)c1-c1ccncc1)C(=O)NCC2 [Example 61] | 100 to 15000
5 | N#Cc1cc(F)ccc1Cn1c2c(c(-c3ccc(F)cc3)c1-c1ccoc1)C(=O)NCC2 [Example 23] | 100 to 15000
6 | CC(=O)Nc1cc(-c2c(-c3ccc(F)cc3)c3c(n2Cc2ccc(C)cc2)CCNC3=O)ccn1 [Example 4, N-(4-(3-(4-Fluorophenyl)-1-(4-methylbenzyl)-4-oxo-4,5,6,7-tetrahydro-1H-pyrrolo[3,2-c]pyridin-2-yl)pyridin-2-yl)acetamide] | < 30
7 | O=C1NCCc2c1c(-c1ccc(F)cc1)c(-c1ccncc1)n2Cc1ccc(F)cc1F [Example 64] | < 30
8 | Cc1cc(Cn2c3c(c(-c4cccc(CCC5CCCCC5)c4)c2-c2ccncc2)C(=O)NCC3)n(C)n1 [Example 181] | 100 to 15000
9 | N#Cc1ccccc1Cn1c2c(c(-c3ccc(F)cc3)c1-c1ccncc1)C(=O)NCC2 [Example 68] | < 30
10 | O=C1NCCc2c1c(-c1ccc(F)cc1)c(-c1ccncc1)n2Cc1ccncn1 [Example 72] | 100 to 15000
11 | Cc1cc(Cn2c3c(c(-c4cccc(N)c4)c2-c2ccncc2)C(=O)NCC3)n(C)n1 [Example 174] | 100 to 15000
12 | O=C1NCCc2c1c(-c1ccc(F)cc1)c(-c1ccncc1)n2Cc1ccc(C(F)(F)F)cc1 [Example 33] | 31 to 100
13 | Cc1ccc(S(=O)(=O)n2c3c(c(-c4ccc(F)cc4)c2-c2ccncc2)C(=O)NCC3)cc1 [Example 162, 3-(4-Fluorophenyl)-2-(pyridin-4-yl)-1-tosyl-6,7-dihydro-1H-pyrrolo[3,2-c]pyridin-4(5H)-one] | 100 to 15000
14 | N#Cc1cccc(-c2c3c(n(Cc4ccc(F)cc4C#N)c2-c2ccncc2)CCNC3=O)c1 [Example 139] | 31 to 100
15 | N#Cc1cc(F)ccc1Cn1c2c(c(/C=C/c3ccccc3)c1-c1ccncc1)C(=O)NCC2 [Example 145] | 31 to 100
16 | CCC(=O)Nc1cc(-c2c(-c3ccc(F)cc3)c3c(n2Cc2ccc(C(F)(F)F)cc2F)CCNC3=O)ccn1 [Example 149] | 31 to 100
17 | O=C1NCCc2c1c(-c1cccc(-c3ccccc3)c1)c(-c1ccncc1)n2CC1CCOCC1 [Example 5, 3-([1,1′-Biphenyl]-3-yl)-2-(pyridin-4-yl)-1-((tetrahydro-2H-pyran-4-yl)methyl)-6,7-dihydro-1H-pyrrolo[3,2-c]pyridin-4(5H)-one] | 100 to 15000
18 | COCCNc1cc(-c2c(-c3ccc(F)cc3)c3c(n2Cc2ccc(C(F)(F)F)cc2F)CCNC3=O)ccn1 [Example 147] | 100 to 15000
19 | COCC(=O)Nc1cc(-c2c(-c3ccc(F)cc3)c3c(n2Cc2ccc(C(F)(F)F)cc2F)CCNC3=O)ccn1 [Example 150] | 31 to 100

Row | Compound | IC50 [nM]
20 | O=C1NCCc2c1c(-c1cccc(C(F)(F)F)c1)c(-c1ccncc1)n2CC1CCOCC1 [Example 105] | 100 to 15000
21 | O=C1NCCc2c1c(-c1ccc(F)cc1)c(-c1ccncc1)n2Cc1ccncc1 [Example 66] | < 30
22 | CC(C)C(=O)Nc1cc(-c2c(-c3ccc(F)cc3)c3c(n2Cc2ccc(C(F)(F)F)cc2F)CCNC3=O)ccn1 [Example 7, N-(4-(1-(2-Fluoro-4-(trifluoromethyl)benzyl)-3-(4-fluorophenyl)-4-oxo-4,5,6,7-tetrahydro-1H-pyrrolo[3,2-c]pyridin-2-yl)pyridin-2-yl)isobutyramide] | 100 to 15000
23 | CC(C)CC(=O)Nc1cc(-c2c(-c3ccc(F)cc3)c3c(n2CC2CCOCC2)CCNC3=O)ccn1 [Example 93] | 100 to 15000
24 | N#Cc1cc(F)ccc1Cn1c2c(c(-c3ccc(F)cc3)c1-c1ccncc1)C(=O)NCC2 [Example 34] | < 30
25 | N#Cc1cc(F)ccc1Cn1c2c(c(-c3ccc(F)cc3)c1-c1ccnc(C(F)(F)F)c1)C(=O)NCC2 [Example 16] | 100 to 15000
26 | CS(=O)(=O)Nc1cc(-c2c(-c3ccc(F)cc3)c3c(n2CC2CCOCC2)CCNC3=O)ccn1 [Example 92] | 100 to 15000
27 | Cc1cc(Cn2c3c(c(-c4ccc(F)cc4)c2-c2ccncc2)C(=O)NCC3)n(C)n1 [Example 65] | < 30
28 | N#Cc1cc(F)ccc1Cn1c2c(c(-c3cccnc3)c1-c1ccnc(Cl)c1)C(=O)NCC2 [Example 11, 2-((2-(2-Chloropyridin-4-yl)-4-oxo-3-(pyridin-3-yl)-4,5,6,7-tetrahydro-1H-pyrrolo[3,2-c]pyridin-1-yl)methyl)-5-fluorobenzonitrile] | 100 to 15000
29 | O=C1NCCc2c1c(-c1ccc(F)cc1)c(-c1ccncc1)n2CC(=O)N1CCCC1 [Example 70] | 31 to 100
30 | N#Cc1cc(F)ccc1Cn1c2c(c(-c3ccoc3)c1-c1ccncc1)C(=O)NCC2 [Example 141] | < 30
31 | O=C1NCCc2c1c(-c1ccc(F)cc1)c(-c1ccnc(Cl)c1)n2Cc1ccc(C(F)(F)F)cc1F [Example 6, 2-(2-Chloropyridin-4-yl)-1-(2-fluoro-4-(trifluoromethyl)benzyl)-3-(4-fluorophenyl)-6,7-dihydro-1H-pyrrolo[3,2-c]pyridin-4(5H)-one] | 100 to 15000
32 | N#Cc1cc(F)ccc1Cn1c2c(c(-c3cccc(CO)c3)c1-c1ccncc1)C(=O)NCC2 [Example 134] | < 30
33 | Cc1cc(Cn2c3c(c(-c4ccc(F)cc4)c2-c2ccncc2)C(=O)NCC3)no1 [Example 79] | 31 to 100
34 | CCn1c2c(c(-c3ccc(F)cc3)c1-c1ccncc1)C(=O)NCC2 [Example 62] | 100 to 15000
35 | CC(C)(C)CCn1c2c(c(-c3ccc(F)cc3)c1-c1ccncc1)C(=O)NCC2 [Example 75] | < 30
36 | N#Cc1cc(F)c(Cn2c3c(c(-c4ccc(F)cc4)c2-c2ccncc2)C(=O)NCC3)c(F)c1 [Example 84] | < 30
37 | Cc1ccc(-c2c3c(n(Cc4ccc(Cl)cc4F)c2-c2ccncc2)CCNC3=O)s1 [Example 164] | < 30

Same assay, conditions: read-out: IC50 for Inhibition of RIPK3

Row | Compound | IC50 [nM]
38 | N#Cc1cc(F)ccc1Cn1c2c(c(-c3ccccc3-c3ccccc3)c1-c1ccncc1)C(=O)NCC2 [Example 125] | 100 to 15000
39 | Cc1ccc(Cn2c3c(c(-c4ccc(F)cc4)c2-c2ccncc2)C(=O)NCC3)cc1 [Example 45] | 31 to 100

— patent publication US10301306B2, “Substituted dihydro-1H-pyrrolo[3,2-c]pyridin-4(5H)-ones as RIPK3 inhibitors” (BRISTOL-MYERS SQUIBB COMPANY, priority 2014, dated 2019)
